Reference: article PMC4556830, “The Effect of MGCD0103 on CYP450 Isoforms Activity of Rats by Cocktail Method” (BioMed Research International, 2015)

Experiments:
CYP2D4 = target: T1, CYP2D4 (Rattus norvegicus, UniProt Q64680); assay: Cocktail method, metoprolol probe: effect of MGCD0103 on CYP2D4 activity; assay type: in vivo; details: 7-day intragastric MGCD0103 20, 40, 80 mg/kg
T1 construct: we investigated the effects of 7-day intragastric administration of MGCD0103 on the activity of CYP enzymes in vivo; from tissue; host or cells: living rats (in vivo)
T1 sequence (Q64680 1-500): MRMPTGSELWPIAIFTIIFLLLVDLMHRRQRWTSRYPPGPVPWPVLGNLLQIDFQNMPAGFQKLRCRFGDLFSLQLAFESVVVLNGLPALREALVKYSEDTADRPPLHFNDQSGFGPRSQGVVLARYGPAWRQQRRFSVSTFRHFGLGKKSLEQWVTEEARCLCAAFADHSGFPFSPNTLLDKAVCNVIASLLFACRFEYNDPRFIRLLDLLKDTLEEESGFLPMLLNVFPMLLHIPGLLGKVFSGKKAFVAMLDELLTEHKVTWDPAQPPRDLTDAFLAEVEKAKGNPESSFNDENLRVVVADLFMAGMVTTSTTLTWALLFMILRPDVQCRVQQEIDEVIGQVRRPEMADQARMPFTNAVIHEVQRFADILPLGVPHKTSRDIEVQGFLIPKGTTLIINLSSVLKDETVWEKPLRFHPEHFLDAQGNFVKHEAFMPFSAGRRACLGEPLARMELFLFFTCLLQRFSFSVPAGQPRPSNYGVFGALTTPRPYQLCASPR
Protocol: (§1) Forty rats (220 ± 20 g) were randomly divided into four different dosages of MGCD0103 groups (Low group, Medium group, High group, and control group with 10 rats in each group). MGCD0103 was dissolved in corn oil as suspension at three different concentrations (20, 40, and 80 mg/mL). Three different MGCD0103 groups (Low group, Medium group, and High group) were respectively given MGCD0103 20, 40, and 80 mg/kg one time by intragastric administration at every morning and last for 7 days. Control group were given saline by same administration method.
(§2) Blood (0.3 mL) samples were collected into heparinized 1.5 mL polythene tubes from the tail vein at 0.0833, 0.5, 1, 2, 3, 4, 6, 8, 12, 24, and 48 h after intragastric administration of six probe drugs. 100 μL of plasma was obtained from blood sample after centrifugation at 4000 g for 10 min. In a 1.5 mL centrifuge tube, 200 μL of acetonitrile (containing 50 ng/mL IS) was added into 100 μL of collected plasma sample. After vortex-mixing for 1.0 min, the sample was centrifuged at 13000 g for 15 min. Then supernatant (2 μL) was injected into the UPLC-MS/MS system for analysis.
(§3) Concentration of plasma probe drugs versus time was analyzed by Version 3.0 Data Analysis System (Wenzhou Medical University, China). The main pharmacokinetic parameters of the MGCD0103 group and control group were analyzed by SPSS l8.0 statistical software.

liver = assay: Liver histopathology (HE staining) after MGCD0103; assay type: in vivo, rat
Protocol: After pharmacokinetic properties analysis, rats were deeply anesthetized with 10% chloral hydrate (i.p., […]). The livers of control group and MGCD0103 treated groups were rapidly isolated and immersed in freshly prepared 4% w/v formaldehyde (0.1 M phosphate buffer, pH 7.2) for 48 h and then embedded in paraffin. Then 5 μm thick histologic sections were prepared and stained with routine HE method (hematoxylin and eosin). The morphological changes of liver were observed under light microscope.

CYP3A2 = target: T2, CYP3A2 (Rattus norvegicus, UniProt P05183); assay: Cocktail method, testosterone probe: effect of MGCD0103 on CYP3A2 activity; assay type: in vivo; details: 7-day intragastric MGCD0103 20, 40, 80 mg/kg
T2 construct: we investigated the effects of 7-day intragastric administration of MGCD0103 on the activity of CYP enzymes in vivo; from tissue; host or cells: living rats (in vivo)
T2 sequence (P05183 1-504): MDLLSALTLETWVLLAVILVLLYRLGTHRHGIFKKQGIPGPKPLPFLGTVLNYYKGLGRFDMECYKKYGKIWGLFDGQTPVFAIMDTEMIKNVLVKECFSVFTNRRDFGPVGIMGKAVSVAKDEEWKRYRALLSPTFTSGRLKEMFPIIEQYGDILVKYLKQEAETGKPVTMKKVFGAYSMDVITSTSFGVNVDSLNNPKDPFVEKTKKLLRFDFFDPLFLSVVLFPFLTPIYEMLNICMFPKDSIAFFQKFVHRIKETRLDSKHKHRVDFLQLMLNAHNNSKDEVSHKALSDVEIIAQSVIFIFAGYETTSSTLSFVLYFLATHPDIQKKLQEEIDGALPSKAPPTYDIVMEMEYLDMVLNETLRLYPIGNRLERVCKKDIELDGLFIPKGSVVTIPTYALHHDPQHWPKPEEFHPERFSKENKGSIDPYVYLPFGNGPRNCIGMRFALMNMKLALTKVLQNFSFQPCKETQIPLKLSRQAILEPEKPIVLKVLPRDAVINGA
Protocol: as §1, §2, §3

CYP2C11 = assay: Cocktail method, tolbutamide probe: effect of MGCD0103 on CYP2C11 activity; assay type: in vivo, rat
Protocol: as §1, §2, §3

CYP1A2 = target: T3, CYP1A2 (Rattus norvegicus, UniProt P04799); assay: Cocktail method, phenacetin probe: effect of MGCD0103 on CYP1A2 activity; assay type: in vivo; details: 7-day intragastric MGCD0103 20, 40, 80 mg/kg
T3 construct: we investigated the effects of 7-day intragastric administration of MGCD0103 on the activity of CYP enzymes in vivo; from tissue; host or cells: living rats (in vivo)
T3 sequence (P04799 1-513): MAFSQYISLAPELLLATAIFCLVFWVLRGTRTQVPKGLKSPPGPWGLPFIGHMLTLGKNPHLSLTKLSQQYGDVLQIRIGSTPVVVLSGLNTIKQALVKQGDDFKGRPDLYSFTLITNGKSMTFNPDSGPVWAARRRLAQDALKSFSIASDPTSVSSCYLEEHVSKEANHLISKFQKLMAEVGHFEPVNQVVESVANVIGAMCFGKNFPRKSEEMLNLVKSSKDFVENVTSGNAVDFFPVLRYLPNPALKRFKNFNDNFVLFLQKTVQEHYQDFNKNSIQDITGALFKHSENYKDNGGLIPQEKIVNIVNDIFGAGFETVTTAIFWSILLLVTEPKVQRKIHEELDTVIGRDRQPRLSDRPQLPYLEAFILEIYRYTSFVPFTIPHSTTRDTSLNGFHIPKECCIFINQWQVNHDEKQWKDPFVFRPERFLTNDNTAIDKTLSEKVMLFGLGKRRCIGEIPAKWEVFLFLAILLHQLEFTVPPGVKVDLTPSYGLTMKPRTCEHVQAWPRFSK
Protocol: as §1, §2, §3

CYP2B1 = target: T4, CYP2B1 (Rattus norvegicus, UniProt P00176); assay: Cocktail method, bupropion probe: effect of MGCD0103 on CYP2B1 activity; assay type: in vivo; details: 7-day intragastric MGCD0103 20, 40, 80 mg/kg
T4 construct: we investigated the effects of 7-day intragastric administration of MGCD0103 on the activity of CYP enzymes in vivo; from tissue; host or cells: living rats (in vivo)
T4 sequence (P00176 1-491): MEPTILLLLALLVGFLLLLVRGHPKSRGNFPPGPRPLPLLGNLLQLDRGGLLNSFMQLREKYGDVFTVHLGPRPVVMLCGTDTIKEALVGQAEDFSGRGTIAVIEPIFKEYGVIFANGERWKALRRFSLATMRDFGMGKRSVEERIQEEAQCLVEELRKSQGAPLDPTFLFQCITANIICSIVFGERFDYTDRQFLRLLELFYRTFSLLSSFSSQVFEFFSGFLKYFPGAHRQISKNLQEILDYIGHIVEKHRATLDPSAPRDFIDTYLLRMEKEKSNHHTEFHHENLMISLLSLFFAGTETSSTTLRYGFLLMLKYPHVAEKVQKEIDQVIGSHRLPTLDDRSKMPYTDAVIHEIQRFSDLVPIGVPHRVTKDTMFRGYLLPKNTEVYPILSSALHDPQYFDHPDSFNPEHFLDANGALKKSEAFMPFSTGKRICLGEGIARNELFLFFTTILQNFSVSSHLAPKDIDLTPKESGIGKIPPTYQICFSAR
Protocol: as §1, §2, §3

effect on activity of CYP2D4 enzyme (CYP2D4): not able to induce or inhibit
morphological changes of liver (liver; low dose group, 20 mg/kg i.g. 7 days): liver cells become slightly edematous
effect on activity of CYP3A2 enzyme (CYP3A2): not able to induce or inhibit
effect on metabolism of tolbutamide (CYP2C11; 7-day intragastric administration of MGCD0103, high dosage (80 mg/kg), rat): slightly induces
effect on activities of CYP2C11 (CYP2C11; continuous 7-day intragastric administration of MGCD0103, rats): slightly induces
effect on activity of CYP1A2 enzyme (CYP1A2): not able to induce or inhibit
effect on activity of CYP2B1 enzyme (CYP2B1): not able to induce or inhibit
SMILES: Nc1ccccc1NC(=O)c1ccc(CNc2nccc(-c3cccnc3)n2)cc1 [MGCD0103, Mocetinostat]
hepatotoxicity (pathological changes of liver) (liver; 20, 40, 80 mg/kg i.g. 7 days, probe drugs also given): hepatotoxic and its toxicity is dose-dependent
morphological changes of liver (liver; high dose group, 80 mg/kg i.g. 7 days): liver cells with steatosis and small, atrophy, hyperchromatic karyopyknosis
morphological changes of liver (liver; middle dose group, 40 mg/kg i.g. 7 days): liver cells experienced extensive fatty changes
